Test results published in US20250320206A1, “STAT6 DEGRADERS” (Gilead Sciences, Inc., priority 2024, published 2025).

Assays:
STAT6 = biological target: T1, STAT6 (Homo sapiens, UniProt P42226); assay: Stat6 Degrader Assay (HiBiT based, HeLa LgBiT clone 4.14); format: cell-based; conditions: HeLa LgBiT clone 4.14 HiBiT-STAT6, 4-24 h incubation; values given for compounds with >80% Emax; geometric mean; read-out: STAT6 degradation DC50
T1 construct: These cells express endogenous STAT6; host or cells: HeLa LgBiT clone 4.14
T1 sequence (P42226 1-847): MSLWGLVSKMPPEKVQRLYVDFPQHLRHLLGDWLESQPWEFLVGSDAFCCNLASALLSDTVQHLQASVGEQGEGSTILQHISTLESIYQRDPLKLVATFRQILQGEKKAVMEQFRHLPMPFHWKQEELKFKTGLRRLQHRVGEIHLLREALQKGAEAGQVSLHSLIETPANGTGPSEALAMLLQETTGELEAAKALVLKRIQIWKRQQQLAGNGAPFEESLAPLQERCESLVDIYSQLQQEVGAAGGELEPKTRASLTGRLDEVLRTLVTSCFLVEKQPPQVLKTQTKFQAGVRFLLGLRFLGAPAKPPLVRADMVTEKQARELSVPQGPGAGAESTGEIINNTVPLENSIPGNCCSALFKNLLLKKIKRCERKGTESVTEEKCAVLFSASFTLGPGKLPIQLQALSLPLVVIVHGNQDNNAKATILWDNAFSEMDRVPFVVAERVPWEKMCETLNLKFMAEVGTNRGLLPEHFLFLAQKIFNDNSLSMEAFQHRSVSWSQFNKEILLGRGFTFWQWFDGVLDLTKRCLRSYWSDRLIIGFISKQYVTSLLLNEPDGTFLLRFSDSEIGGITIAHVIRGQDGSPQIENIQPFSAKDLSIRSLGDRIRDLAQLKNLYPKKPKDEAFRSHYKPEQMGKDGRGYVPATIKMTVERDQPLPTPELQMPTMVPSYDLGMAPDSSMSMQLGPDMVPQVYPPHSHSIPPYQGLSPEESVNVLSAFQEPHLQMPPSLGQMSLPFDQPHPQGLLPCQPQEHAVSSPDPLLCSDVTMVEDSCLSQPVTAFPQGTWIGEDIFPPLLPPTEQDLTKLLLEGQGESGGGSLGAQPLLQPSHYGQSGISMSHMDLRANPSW
How it was run: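 Luminescence from HiBiT-STAT6 complementing stably expressed LgBiT in HeLa clone 4.14 reports remaining STAT6 protein. Cells (5000/well) exposed to compound for 4-24 h at 37° C; read 0.5 h after Nano-Glo addition. 100% degradation window set with 50 μM terfenadine; percent degradation plotted against concentration.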

[1] = system: Eotaxin-3 release in human whole blood stimulated with IL-4; assay: Human Whole Blood Eotaxin-3 Assay (IL-4 stimulated eotaxin-3 release); format: cell-based; conditions: IL-4 stimulation, 48 h, values given for compounds with >80% Emax, geometric mean
How it was run: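 Eotaxin-3 (CCL26) release measured by MSD kit in plasma supernatant after 48 h IL-4 stimulation ([…]) of human whole blood. Compounds added in triplicate 4-fold dilutions 2 h before stimulation; 0.5% DMSO final, 37° C, 5% CO2.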

CNc1ccn(-c2ccnc3c2cc([C@H](C)N2CC=C(c4c(C)cc(C(=O)N5CCC(CN6CCN(c7ccc8c(c7)n(C)c(=O)n8C7CCC(=O)NC7=O)CC6)CC5)cc4F)CC2)n3C)c(=O)c1 (stereo partly drawn) [Example 3u299, 3-(5-(4-((1-(3-fluoro-5-methyl-4-(1-((S)-1-(1-methyl-4-(4-(methylamino)-2-oxopyridin-1 (2H)-yl)-1H-pyrrolo[2,3-b]pyridin-2-yl)ethyl)-1,2,3,6-tetrahydropyridin-4-yl)benzoyl)piperidin-4-yl)methyl)piperazin-1-yl)-3-methyl-2-oxo-2,3-dihydro-1H-benzo[d]imidazol-1-yl)piperidine-2,6-dione]
DC50 (STAT6): 0.9 nM
EC50 [1]: 0.5 nM

CNc1cc(=O)n(-c2ccnc3c2cc([C@H](C)N2CC=C(c4c(C)cc(C(=O)N5CCC(CN6CCN(Cc7ccc8c(c7)C(C)(C)C(=O)N8C7CCC(=O)NC7=O)C[C@@H]6C)CC5)cc4F)CC2)n3C)cc1F (stereo partly drawn) [Example 3u172, 3-(5-(((S)-4-((1-(3-fluoro-4-(1-((S)-1-(4-(5-fluoro-4-(methylamino)-2-oxopyridin-1 (2H)-yl)-1-methyl-1H-pyrrolo[2,3-b]pyridin-2-yl)ethyl)-1,2,3,6-tetrahydropyridin-4-yl)-5-methylbenzoyl)piperidin-4-yl)methyl)-3-methylpiperazin-1-yl)methyl)-3,3-dimethyl-2-oxoindolin-1-yl)piperidine-2,6-dione]
DC50 (STAT6): 2.9 nM
EC50 [1]: 13.2 nM

CNc1ccn(-c2ccnc3c2cc([C@H](C)N2CC=C(c4c(C)cc(C(=O)N5CCC(CN6CCN(Cc7ccc8c(c7)n(C)c(=O)n8C7CCC(=O)NC7=O)CC6)CC5)cc4F)CC2)n3C)c(=O)c1 (stereo partly drawn) [Example 3u155, 3-(5-((4-((1-(3-fluoro-5-methyl-4-(1-((S)-1-(1-methyl-4-(4-(methylamino)-2-oxopyridin-1 (2H)-yl)-1H-pyrrolo[2,3-b]pyridin-2-yl)ethyl)-1,2,3,6-tetrahydropyridin-4-yl)benzoyl)piperidin-4-yl)methyl)piperazin-1-yl)methyl)-3-methyl-2-oxo-2,3-dihydro-1H-benzo[d]imidazol-1-yl)piperidine-2,6-dione]
DC50 (STAT6): 0.3 nM
EC50 [1]: 0.5 nM

CNc1ccn(-c2ccnc3c2cc(CN2CCC(c4c(F)cc(C(=O)N5CCC(CN6CCN(c7ccc8c(c7)C7(CC7)C(=O)N8C7CCC(=O)NC7=O)CC6)CC5)cc4F)CC2)n3C)c(=O)c1 (stereo not drawn) [Example 3u149, 3-(5′-(4-((1-(3,5-difluoro-4-(1-((1-methyl-4-(4-(methylamino)-2-oxopyridin-1 (2H)-yl)-1H-pyrrolo[2,3-b]pyridin-2-yl)methyl)piperidin-4-yl)benzoyl)piperidin-4-yl)methyl)piperazin-1-yl)-2′-oxospiro[cyclopropane-1,3′-indolin]-1′-yl)piperidine-2,6-dione]
DC50 (STAT6): 33.8 nM
EC50 [1]: 27.6 nM

CNc1ccn(-c2ccnc3c2cc([C@H](C)N2CC=C(c4c(C)cc(C(=O)N5CCC(CN6CCN(c7cc8c(cc7F)n([C@@H]7CCC(=O)NC7=O)c(=O)n8C)CC6)CC5)cc4F)CC2)n3C)c(=O)c1 (single isomer, unassigned) [Example 3u308]
DC50 (STAT6): 0.7 nM
EC50 [1]: 1.3 nM

CNc1ccn(-c2ccnc3c2cc(CN2CCC(c4c(F)cc(C(=O)N5CCC(CN6CCN(Cc7ccc8c(c7)n(C)c(=O)n8[C@H]7CCC(=O)NC7=O)CC6)CC5)cc4F)CC2)n3C)c(=O)c1 (single isomer, unassigned) [Example 3u30]
DC50 (STAT6): 2.2 nM
EC50 [1]: 1.6 nM

CNc1ccn(-c2ccnc3c2cc([C@H](C)N2CCC(c4ccc(C(=O)N5CCC(CN6CCN(Cc7ccc8c(c7)n(C)c(=O)n8C7CCC(=O)NC7=O)C[C@@H]6C)CC5)cc4)CC2)n3C)c(=O)c1 (stereo partly drawn) [Example 3e39, 3-(3-methyl-5-(((S)-3-methyl-4-((1-(4-(1-((S)-1-(1-methyl-4-(4-(methylamino)-2-oxopyridin-1 (2H)-yl)-1H-pyrrolo[2,3-b]pyridin-2-yl)ethyl)piperidin-4-yl)benzoyl)piperidin-4-yl)methyl)piperazin-1-yl)methyl)-2-oxo-2,3-dihydro-1H-benzo[d]imidazol-1-yl)piperidine-2,6-dione]
DC50 (STAT6): 0.5 nM
EC50 [1]: 0.5 nM

CNc1cc(=O)n(-c2ccnc3c2cc([C@H](C)N2CC=C(c4c(C)cc(C(=O)N5CCC(CN6CCN(c7ccc8c(c7)C(C)(C)C(=O)N8[C@H]7CCC(=O)NC7=O)CC6)CC5)cc4F)CC2)n3C)cc1F (single isomer, unassigned) [Example 3u285]
DC50 (STAT6): 7.8 nM
EC50 [1]: 101 nM

C[C@H]1CN(Cc2ccc3c(c2)n(C)c(=O)n3C2CCC(=O)NC2=O)CCN1CC1CCN(C(=O)c2ccc(C3CCN([C@@H](C)c4cc5c(-n6ccc7c(c6=O)CCN7)ccnc5n4C)CC3)cc2)CC1 (stereo partly drawn) [Example 3e44, 3-(3-methyl-5-(((S)-3-methyl-4-((1-(4-(1-((S)-1-(1-methyl-4-(4-oxo-1,2,3,4-tetrahydro-5H-pyrrolo[3,2-c]pyridin-5-yl)-1H-pyrrolo[2,3-b]pyridin-2-yl)ethyl)piperidin-4-yl)benzoyl)piperidin-4-yl)methyl)piperazin-1-yl)methyl)-2-oxo-2,3-dihydro-1H-benzo[d]imidazol-1-yl)piperidine-2,6-dione]
DC50 (STAT6): 0.7 nM
EC50 [1]: 0.3 nM

C[C@H]1CN(Cc2ccc3c(c2)C2(CC2)C(=O)N3C2CCC(=O)NC2=O)CCN1CC1CCN(C(=O)c2cc(F)c(C3CCN(Cc4cc5c(-n6ccc7c(c6=O)CCN7)ccnc5n4C)CC3)c(F)c2)CC1 (stereo partly drawn) [Example 3u69, 3-(5′-(((S)-4-((1-(3,5-difluoro-4-(1-((1-methyl-4-(4-oxo-1,2,3,4-tetrahydro-5H-pyrrolo[3,2-c]pyridin-5-yl)-1H-pyrrolo[2,3-b]pyridin-2-yl)methyl)piperidin-4-yl)benzoyl)piperidin-4-yl)methyl)-3-methylpiperazin-1-yl)methyl)-2′-oxospiro[cyclopropane-1,3′-indolin]-1′-yl)piperidine-2,6-dione]
DC50 (STAT6): 1.5 nM
EC50 [1]: 2.4 nM

CNc1ccn(-c2ccnc3c2cc(CN2CCC(c4c(F)cc(C(=O)N(C)c5ccc(C6CCN(Cc7ccc8c(c7)n(C)c(=O)n8C7CCC(=O)NC7=O)CC6)cc5)cc4F)CC2)n3C)c(=O)c1 (stereo not drawn) [Example 3u244, N-(4-(1-((1-(2,6-dioxopiperidin-3-yl)-3-methyl-2-oxo-2,3-dihydro-1H-benzo[d]imidazol-5-yl)methyl)piperidin-4-yl)phenyl)-3,5-difluoro-N-methyl-4-(1-((1-methyl-4-(4-(methylamino)-2-oxopyridin-1 (2H)-yl)-1H-pyrrolo[2,3-b]pyridin-2-yl)methyl)piperidin-4-yl)benzamide]
DC50 (STAT6): 0.1 nM
EC50 [1]: 0.3 nM

CNc1cc(=O)n(-c2ccnc3c2cc([C@H](C)N2CC=C(c4c(C)cc(C(=O)N5CCC(CN6CCN(Cc7ccc8c(c7)n(C)c(=O)n8C7CCC(=O)NC7=O)C[C@@H]6C)CC5)cc4F)CC2)n3C)cc1F (stereo partly drawn) [Example 3u90, 3-(5-(((S)-4-((1-(3-fluoro-4-(1-((S)-1-(4-(5-fluoro-4-(methylamino)-2-oxopyridin-1 (2H)-yl)-1-methyl-1H-pyrrolo[2,3-b]pyridin-2-yl)ethyl)-1,2,3,6-tetrahydropyridin-4-yl)-5-methylbenzoyl)piperidin-4-yl)methyl)-3-methylpiperazin-1-yl)methyl)-3-methyl-2-oxo-2,3-dihydro-1H-benzo[d]imidazol-1-yl)piperidine-2,6-dione]
DC50 (STAT6): 0.3 nM
EC50 [1]: 0.9 nM

CNc1cc(=O)n(-c2ccnc3c2cc(CN2CCC(c4c(F)cc(C(=O)N5CCC(CN6CCN(Cc7ccc8c(c7)n(C)c(=O)n8[C@@H]7CCC(=O)NC7=O)C[C@@H]6C)CC5)cc4F)CC2)n3C)cc1F (single isomer, unassigned) [Example 3u62]
DC50 (STAT6): 1.2 nM
EC50 [1]: 1.2 nM

CNc1ccn(-c2ccnc3c2cc(CN2CC=C(c4c(F)cc(C(=O)N5CCC(CN6CCN(Cc7ccc8c(c7)C(C)(C)C(=O)N8[C@@H]7CCC(=O)NC7=O)C[C@@H]6C)CC5)cc4F)CC2)n3C)c(=O)c1 (single isomer, unassigned) [Example 3u47]
DC50 (STAT6): 0.8 nM
EC50 [1]: 8 nM

CNc1cc(=O)n(-c2ccnc3c2cc([C@H](C)N2CC=C(c4c(C)cc(C(=O)N(C)c5ccc(N6CCC(Cc7ccc8c(c7)n(C)c(=O)n8[C@H]7CCC(=O)NC7=O)CC6)nc5)cc4F)CC2)n3C)cc1F (single isomer, unassigned) [Example 3u242]
DC50 (STAT6): 0.2 nM
EC50 [1]: 0.2 nM
